Source: the supplement of paper PMC11061612

Tests used:
Assay in all cases: combination Emax (second highest fraction inhibited in the dose matrix, 72 h); higher = more inhibition; extreme values may be limits of the assay
[1] = system: KM-H2 (Hodgkin's Lymphoma)
Procedure, shortened: (§1)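 Cell lines in DMEM/F12 or RPMI with 10% FBS were plated in 1536-well plates, held 24 hours at 37°C, 5% CO2, then given two-drug dose matrices for 72 hours (DMSO typically 0.2%). Viability was read by CellTiter-Glo 2.0 luminescence and scaled as inhibition from 0 (vehicle wells) to 1 (blank wells). Combination Emax is the second-highest inhibition in the matrix; Bliss excess is observed combination effect minus expected EA + EB − EA·EB, EA and EB being single-agent effects.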

J82 (Bladder Carcinoma) = system: J82 (Bladder Carcinoma)
Procedure, shortened: as §1

[2] = system: SUIT-2 (Pancreatic Carcinoma)
Procedure, shortened: as §1

ES7 (Ewing's Sarcoma) = system: ES7 (Ewing's Sarcoma)
Procedure, shortened: as §1

RH-1 (Ewing's Sarcoma) = system: RH-1 (Ewing's Sarcoma)
Procedure, shortened: as §1

[3] = system: CFPAC-1 (Pancreatic Carcinoma)
Procedure, shortened: as §1

[4] = system: HT-29 (Colorectal Carcinoma)
Procedure, shortened: as §1

[5] = system: CTV-1 (T-Lymphoblastic Leukemia)
Procedure, shortened: as §1

[6] = system: HCC2157 (Breast Carcinoma)
Procedure, shortened: as §1

[7] = system: SNU-C5 (Colorectal Carcinoma)
Procedure, shortened: as §1

[8] = system: EM-2 (Chronic Myelogenous Leukemia)
Procedure, shortened: as §1

[9] = system: DB (B-Cell Non-Hodgkin's Lymphoma)
Procedure, shortened: as §1

[10] = system: U-266 (Plasma Cell Myeloma)
Procedure, shortened: as §1

[11] = system: MDA-MB-231 (Breast Carcinoma)
Procedure, shortened: as §1

CAL-78 (Chondrosarcoma) = system: CAL-78 (Chondrosarcoma)
Procedure, shortened: as §1

DSH1 (Bladder Carcinoma) = system: DSH1 (Bladder Carcinoma)
Procedure, shortened: as §1

[12] = system: KARPAS-620 (Plasma Cell Myeloma)
Procedure, shortened: as §1

NCI-H2369 (Mesothelioma) = system: NCI-H2369 (Mesothelioma)
Procedure, shortened: as §1

[13] = system: COR-L23 (Non-Small Cell Lung Carcinoma)
Procedure, shortened: as §1

[14] = system: LU-99A (Non-Small Cell Lung Carcinoma)
Procedure, shortened: as §1

Row | SMILES | combination Emax [1] | combination Emax (J82 (Bladder Carcinoma)) | combination Emax [2] | combination Emax (ES7 (Ewing's Sarcoma)) | combination Emax (RH-1 (Ewing's Sarcoma)) | combination Emax [3] | combination Emax [4] | combination Emax [5] | combination Emax [6] | combination Emax [7] | combination Emax [8] | combination Emax [9] | combination Emax [10] | combination Emax [11] | combination Emax (CAL-78 (Chondrosarcoma)) | combination Emax (DSH1 (Bladder Carcinoma)) | combination Emax [12] | combination Emax (NCI-H2369 (Mesothelioma)) | combination Emax [13] | combination Emax [14]
1 | CCN(CCO)CCCOc1ccc2c(Nc3cc(CC(=O)Nc4cccc(F)c4)[nH]n3)ncnc2c1 [AZD2811] + O=C(c1cc(Cc2n[nH]c(=O)c3ccccc23)ccc1F)N1CCN(C(=O)C2CC2)CC1 [Olaparib] (first compound max 1 µM, 7x7, partner max 10 µM) | 0.384 | 0.0709 | 0.0755 | 0.918 | 0.947 | 0.215 | 0.182 | 0.375 | 0.539 | 0.161 | 0.822 | 0.604 | 0.279 | 0.275 | 0.416 | 0.328 | 0.4 | 0.216 | 0.0799 | 0.508
2 | CN(CCO)CC[C@H](CSc1ccccc1)Nc1ccc(S(=O)(=O)NC(=O)c2ccc(N3CCC([C@@H](O)c4ccccc4-c4ccc(Cl)cc4)CC3)cc2)cc1S(=O)(=O)C(F)(F)F [AZD4320] + C1CN(CCC1(C(=O)N[C@@H](CCO)C2=CC=C(C=C2)Cl)N)C3=NC=NC4=C3C=CN4 [Capivasertib] (first compound max 1 µM, 7x7, partner max 3 µM) | 0.0543 | 0.164 | 0.074 | 0.762 | 0.394 | 0.0708 | 0.196 | 0.404 | 0.991 | 0.3 | 0.98 | 0.899 | 0.577 | 0.376 | 0.524 | 0.686 | 1 | 0.859 | 0.258 | 0.35
3 | CN(CCO)CC[C@H](CSc1ccccc1)Nc1ccc(S(=O)(=O)NC(=O)c2ccc(N3CCC([C@@H](O)c4ccccc4-c4ccc(Cl)cc4)CC3)cc2)cc1S(=O)(=O)C(F)(F)F [AZD4320] + CCN(CCO)CCCOc1ccc2c(Nc3cc(CC(=O)Nc4cccc(F)c4)[nH]n3)ncnc2c1 [AZD2811] (first compound max 1 µM, 7x7, partner max 1 µM) | 0.196 | 0.126 | 0.089 | 1 | 0.913 | 0.115 | 0.232 | 0.27 | 0.979 | 0.196 | 0.985 | 0.891 | 0.718 | 0.813 | 0.703 | 0.819 | 1 | 0.378 | 0.15 | 0.701
4 | CN(CCO)CC[C@H](CSc1ccccc1)Nc1ccc(S(=O)(=O)NC(=O)c2ccc(N3CCC([C@@H](O)c4ccccc4-c4ccc(Cl)cc4)CC3)cc2)cc1S(=O)(=O)C(F)(F)F [AZD4320] + C[C@@H]1COCCN1C2=NC(=NC(=C2)C3(CC3)[S@](=N)(=O)C)C4=C5C=CNC5=NC=C4 [AZD6738] (first compound max 1 µM, 7x7, partner max 10 µM) | 0.909 | 0.524 | 0.522 | 1 | 0.963 | 0.724 | 0.936 | 0.822 | 0.979 | 0.854 | 0.988 | 0.959 | 0.834 | 0.849 | 0.861 | 0.94 | 1 | 0.324 | 0.621 | 0.838
5 | COc1nnc2ccc(N3CCC(c4ccc(OCCN5CCN(C)C(=O)[C@H]5C)cc4)CC3)nn12 [AZD5153] + CC1(C)CCC(CN2CCN(c3ccc(C(=O)NS(=O)(=O)c4ccc(NCC5CCOCC5)c([N+](=O)[O-])c4)c(Oc4cnc5[nH]ccc5c4)c3)CC2)=C(c2ccc(Cl)cc2)C1 [Venetoclax] (first compound max 1 µM, 7x7, partner max 1 µM) | 0.377 | 0.308 | 0.371 | 0.565 | 0.334 | 0.416 | 0.718 | 0.963 | 1 | 0.522 | 0.918 | 0.991 | 0.272 | 0.661 | 0.457 | 0.623 | 0.927 | 0.327 | 0.317 | 0.456

Second part, led by results:

Row | combination Emax [1] | SMILES | combination Emax (J82 (Bladder Carcinoma)) | combination Emax [2] | combination Emax (ES7 (Ewing's Sarcoma)) | combination Emax (RH-1 (Ewing's Sarcoma)) | combination Emax [3] | combination Emax [4] | combination Emax [5] | combination Emax [6] | combination Emax [7] | combination Emax [8] | combination Emax [9] | combination Emax [10] | combination Emax [11] | combination Emax (CAL-78 (Chondrosarcoma)) | combination Emax (DSH1 (Bladder Carcinoma)) | combination Emax [12] | combination Emax (NCI-H2369 (Mesothelioma)) | combination Emax [13] | combination Emax [14]
6 | 0.0312 | CN(CCO)CC[C@H](CSc1ccccc1)Nc1ccc(S(=O)(=O)NC(=O)c2ccc(N3CCC([C@@H](O)c4ccccc4-c4ccc(Cl)cc4)CC3)cc2)cc1S(=O)(=O)C(F)(F)F [AZD4320] + Cc1cc2ncnn2cc1Nc1ncc2c(n1)n(C1CCOCC1)c(=O)n2C [AZD7648] (first compound max 1 µM, 7x7, partner max 10 µM) | 0.0607 | 0.104 | 0.804 | 0.438 | 0.134 | 0.149 | 0.315 | 0.959 | 0.225 | 0.99 | 0.976 | 0.622 | 0.637 | 0.46 | 0.586 | 1 | 0.0705 | 0.0958 | 0.447
7 | 0.296 | CN(CCO)CC[C@H](CSc1ccccc1)Nc1ccc(S(=O)(=O)NC(=O)c2ccc(N3CCC([C@@H](O)c4ccccc4-c4ccc(Cl)cc4)CC3)cc2)cc1S(=O)(=O)C(F)(F)F [AZD4320] + Cn1cnc2c(F)c(Nc3ccc(Br)cc3Cl)c(C(=O)NOCCO)cc21 [Selumetinib] (first compound max 1 µM, 7x7, partner max 3 µM) | 0.245 | 0.406 | 0.984 | 0.854 | 0.472 | 0.695 | 0.706 | 0.923 | 0.656 | 0.971 | 0.953 | 0.938 | 0.832 | 0.557 | 0.565 | 1 | 0.435 | 0.442 | 0.87
8 | 0.943 | COc1nnc2ccc(N3CCC(c4ccc(OCCN5CCN(C)C(=O)[C@H]5C)cc4)CC3)nn12 [AZD5153] + C=CCn1c(=O)c2cnc(Nc3ccc(N4CCN(C)CC4)cc3)nc2n1-c1cccc(C(C)(C)O)n1 [AZD1775] (first compound max 1 µM, partner max 1 µM) | 0.486 | 0.693 | 0.795 | 0.997 | 0.506 | 0.868 | 0.996 | 1 | 0.682 | 0.986 | 0.953 | 0.637 | 0.612 | 0.551 | 0.614 | 0.764 | 0.461 | 0.68 | 0.595
9 | 0.351 | COc1nnc2ccc(N3CCC(c4ccc(OCCN5CCN(C)C(=O)[C@H]5C)cc4)CC3)nn12 [AZD5153] + CCN(CCO)CCCOc1ccc2c(Nc3cc(CC(=O)Nc4cccc(F)c4)[nH]n3)ncnc2c1 [AZD2811] (first compound max 1 µM, 7x7, partner max 1 µM) | 0.355 | 0.436 | 0.884 | 0.995 | 0.394 | 0.72 | 0.974 | 1 | 0.517 | 0.986 | 0.722 | 0.279 | 0.65 | 0.486 | 0.651 | 0.75 | 0.344 | 0.354 | 0.505
10 | 0.89 | COc1nnc2ccc(N3CCC(c4ccc(OCCN5CCN(C)C(=O)[C@H]5C)cc4)CC3)nn12 [AZD5153] + C[C@@H]1COCCN1C2=NC(=NC(=C2)C3(CC3)[S@](=N)(=O)C)C4=C5C=CNC5=NC=C4 [AZD6738] (first compound max 1 µM, 7x7, partner max 10 µM) | 0.604 | 0.671 | 0.952 | 0.957 | 0.574 | 0.863 | 0.987 | 1 | 0.816 | 0.998 | 0.811 | 0.412 | 0.81 | 0.515 | 0.808 | 0.835 | 0.363 | 0.772 | 0.755
11 | 0.451 | COc1nnc2ccc(N3CCC(c4ccc(OCCN5CCN(C)C(=O)[C@H]5C)cc4)CC3)nn12 [AZD5153] + Cc1c2c(nn1C)CSCc1cc(n(C)n1)CSc1cc(c3ccccc3c1)OCCCc1c(C(=O)O)n(C)c3c-2c(Cl)ccc13 [AZD5991] (first compound max 1 µM, 7x7, partner max 1 µM) | 0.791 | 0.462 | 0.928 | 0.937 | 0.419 | 0.716 | 0.939 | 1 | 0.56 | 0.988 | 1 | 0.899 | 0.642 | 0.749 | 1 | 1 | 0.337 | 0.312 | 0.807
12 | 0.299 | COc1nnc2ccc(N3CCC(c4ccc(OCCN5CCN(C)C(=O)[C@H]5C)cc4)CC3)nn12 [AZD5153] + Cn1cnc2c(F)c(Nc3ccc(Br)cc3Cl)c(C(=O)NOCCO)cc21 [Selumetinib] (first compound max 1 µM, 7x7, partner max 10 µM) | 0.496 | 0.558 | 0.549 | 0.315 | 0.584 | 0.848 | 0.99 | 1 | 0.619 | 0.992 | 0.761 | 0.542 | 0.73 | 0.391 | 0.683 | 0.99 | 0.368 | 0.422 | 0.949
